Source: patent US10443103B2, “Chemotherapy regimen selection” (Innomedicine, LLC, priority 2015, dated 2019)

Tested on: breast cancer
Test: Observed pathologic complete response (pCR) rate after neoadjuvant chemotherapy, GEO data sets
Assay type: in vivo, human
Settings: Total of 7 GEO data sets, whole study population
Experimental: Herein, data was reanalyzed from several previous studies in which breast cancer patients were treated with neoadjuvant chemotherapy. Chemotherapies can be given at different stages of breast cancer: before surgery (also called neoadjuvant chemotherapy), after surgery and after metastasis. Neoadjuvant chemotherapy is often used to shrink tumors to make them more operable. There are two main categories of cytotoxic chemotherapy drugs for breast cancer: anthracyclines and taxanes. Many different combinations of the two types of drugs have been used for treating breast cancer, despite the fact that no effective guidelines are available for the selection of a specific regimen for a patient (Dotan, et al., 2010). Herein, data was collected from 1111 breast cancer patients from GEO database (Gene Expression Omnibus (Edgar, et al., 2002, Barrett, et al., 2013)), where clinical information including responses to chemotherapy and gene expression data are available. […] Among the 1111 patients, 21.2% of them have pCR and the rest have RD as their responses. […]
1111 breast cancer tumor samples were collected from 7 data series in GEO database (Gene Expression Omnibus (Takada, et al., 2012, Albain, et al., 2010)) (Table 2). […] R (Liu, et al., 2012) package Affyio (Edgar, et al., 2002) was used to read and normalize the Affymetrix® data. […]

| SMILES | percentage of patients who have pCR |
| --- | --- |
| CC(=O)O[C@@]12CO[C@@H]1C[C@H](O)[C@@]1(C)C(=O)[C@H](O)C3=C(C)[C@@H](OC(=O)[C@H](O)[C@@H](NC(=O)OC(C)(C)C)c4ccccc4)C[C@@](O)([C@@H](OC(=O)c4ccccc4)[C@H]21)C3(C)C [docetaxel] | 33.1% |
| CC(=O)O[C@H]1C(=O)[C@@]2(C)[C@H]([C@H](OC(=O)c3ccccc3)[C@]3(O)C[C@H](OC(=O)[C@H](O)[C@@H](NC(=O)c4ccccc4)c4ccccc4)C(C)=C1C3(C)C)[C@]1(OC(C)=O)CO[C@@H]1C[C@@H]2O [paclitaxel] | 19.7% |
